One experiment relates to S. aureus. The experiment can be described thus: MIC and MBC, broth microdilution (Example 3). The format is cell-based, Staphylococcus aureus. To be noted: S. aureus strains. An excerpt: (§1) This study used clinically relevant strains isolated from patients with prosthetic joint infections at the Microbiology Laboratory of the IRCCS Galeazzi Orthopaedic institute (Italy). In particular, the following were selected: strains of methicillin-resistant Staphylococcus epidermidis, of methicillin-resistant Staphylococcus aureus and of Pseudomonas aeruginosa. These strains were identified beforehand by means of biochemical assays (VITEK® 2 Compact, bioMérieux, Marcy l'Etoile, France) and stored at −80° C. prior to the analysis. Before beginning the study, all strains were screened to assess their ability to produce biofilms, according to the spectrophotometric assay described by Christensen et al. (J Clin Microbiol 1985; 22: 996-1006).
(§2) The bacteriostatic and bactericidal activity of vitamin E acetate and vitamin E phosphate against the above-mentioned bacterial strains was assessed by measuring the minimum inhibitory concentration (MIC) and the minimum bactericidal concentration (MBC). MIC, defined as the lowest concentration capable of inhibiting bacterial growth, was determined using the broth microdilution method according to EUCAST guidelines (http://www.eucast.org/clinical_breakpoints/).
(§3) In short, a suspension in Brain Heart Infusion Broth (BHI; Biomérieux, Marci l'Etoile, France) was prepared for each bacterial strain, with an optical density of 0.5 McFarland (1.5×10^8 CFU/ml). The P. acnes broth was supplemented with 5% defibrinated sheep blood (Liofilchem, Roseto degli Abruzzi, Italy). After a concentration of 10^5 UFC/ml was obtained using appropriate dilutions, each suspension was inoculated in a 96-well microtitre plate containing a two-fold serial dilution of vitamin E acetate (VitE-Ac) and vitamin E phosphate. The controls were performed by inoculating bacterial suspensions in BHI alone. […] After incubation at adequate conditions, MBC was read as the lowest concentration capable of killing 99.9% of the initial inoculum.
On the technique in general: Dilution methods test growth across graded concentrations, often in twofold steps.

A further experiment deals with S. epidermidis. The experiment can be described thus: MIC and MBC, broth microdilution (Example 3). The format is cell-based, Staphylococcus epidermidis. Particulars: S. epidermidis strains.
Source text: as §1, §2, §3

The subject of experiment [1] is P. aeruginosa. The experiment can be described thus: MIC and MBC, broth microdilution (Example 3). The format is cell-based, Pseudomonas aeruginosa. To be noted: P. aeruginosa strains.
Source text: as §1, §2, §3

The next experiment deals with P. acnes. The experiment can be described thus: MIC and MBC, broth microdilution (Example 3). The format is cell-based. How it is done: as §3, with “MIC, defined as the lowest concentration capable of inhibiting bacterial growth, was determined using the broth microdilution method according to EUCAST guidelines (http://www.eucast.org/clinical_breakpoints/). In short,” for “In short,”, “Infusion Broth ([…], France) was” for “Infusion Broth (BHI; Biomérieux, Marci l'Etoile, France) was”, “sheep blood ([…] Abruzzi, Italy).” for “sheep blood (Liofilchem, Roseto degli Abruzzi, Italy).”

For experiment [2], the system named is P. aeruginosa. The experiment can be described thus: Anti-adhesion activity on coated titanium disks, CFU count (Example 3). Type of experiment: cell-based, Pseudomonas aeruginosa. Particulars: 5 mg/cm^2 coating, 30, 60 and 120 minutes. On the procedure:
Sterile disks of sandblasted titanium with a diameter of 25 mm and a thickness of 5 mm (Adler Ortho, Cormano, Italy) were used as the substrate for the formation of biofilms. The disks were coated with sub-inhibitory concentrations of vitamin E acetate (5 mg/cm^2) or vitamin E phosphate (5 mg/cm^2). The concentrations were selected based on the MIC results. Uncoated disks were used as negative controls. The anti-adhesion activity of vitamin E was assessed against a representative strain for each species. An overnight bacteria culture was resuspended in Brain Heart Infusion Broth (BHI; Biomérieux) at a density of 1.0×10^7 CFU/ml for each strain, and 400 microliters of microbial suspension were inoculated on coated and uncoated disks. The test was performed in triplicate for each strain. After 30, 60 and 120 minutes of incubation, the disks were washed twice with a sterile saline solution to eliminate non-adherent bacteria. The disks were then immersed in 5 ml of a 0.1 w/v % dithiothreitol solution (DTT, Sigma-Aldrich, Milan, Italy) and mechanically stirred for 15 minutes at room temperature. Suitable dilutions of the fluids obtained were inoculated on Tryptic Soy Agar (TSA, Merck) and incubated at 37° C. in an aerobic atmosphere for 24 hours for the CFU count.

Where [3] appears, read: kills 99.9% of the initial inoculum.

Turning to `CC(=O)Oc1c(C)c(C)c2c(c1C)CCC(C)(CCC[C@H](C)CCC[C@H](C)CCCC(C)C)O2` (stereo partly drawn) [Vitamin E acetate, α-tocopherol acetate], the MIC range against S. aureus (24 hours) is more than 200 mg/mL; with S. epidermidis (24 hours) it was more than 200 mg/mL; with P. aeruginosa [1] (24 hours), more than 200 mg/mL; in the experiment with P. acnes (48 hours, broth with 5% defibrinated sheep blood), more than 200 mg/mL. For the same compound, the MBC range against S. aureus (setting [3]), against S. epidermidis (setting [3]), against P. aeruginosa [1] (setting [3]) and with P. acnes (setting [3]) was more than 200 mg/mL each time. For the same compound, in the experiment with P. aeruginosa [2], the “decrease in adhesion (in words)” value is “No effect”.
